Assay results from publication PMC3537142 (EMBO Reports, 2012).
Where a chain is given by its changes, count along the chain named.

Assays:
[1] = biological target: T1, 5HTBP construct A1 B2 D1W (Aplysia californica, UniProt Q8WSF8, K160T/S111E/V159L/Y72W); assay: SPR biosensor assay; conditions: construct A1B2D1W; stated for both [3H]granisetron binding and SPR
T1 sequence (Q8WSF8 20-236 Y72W/S111E/V159L/K160T): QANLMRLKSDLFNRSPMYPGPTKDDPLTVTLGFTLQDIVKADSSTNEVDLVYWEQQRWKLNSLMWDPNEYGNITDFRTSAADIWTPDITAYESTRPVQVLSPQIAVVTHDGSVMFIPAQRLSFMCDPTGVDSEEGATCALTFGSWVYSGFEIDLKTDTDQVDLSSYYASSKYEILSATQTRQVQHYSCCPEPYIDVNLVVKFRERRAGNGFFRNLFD

[2] = tested on: AChBPs; conditions: ref [4], [5]; cited from earlier work
[3] = biological target: T2, 5HTBP construct D2 (Y53W, Q55R) (Aplysia californica, UniProt Q8WSF8, Q74R/Y72W); assay: Competition binding with [3H]granisetron; conditions: read-out: Granisetron Ki, [3H]granisetron binding
T2 sequence (Q8WSF8 20-236 Y72W/Q74R): T1 sequence (Q8WSF8 20-236 Y72W/S111E/V159L/K160T) with Q55R, E92S, L140V, T141K

[4] = biological target: T3, 5HTBP construct A1 (S92E) (Aplysia californica, UniProt Q8WSF8, S111E); assay: Competition binding with [3H]granisetron; conditions: read-out: Ki, [3H]granisetron binding; single mutant construct A1 (S92E)
T3 sequence (Q8WSF8 20-236 S111E): T1 sequence (Q8WSF8 20-236 Y72W/S111E/V159L/K160T) with W53Y, L140V, T141K

[5] = biological target: T4, construct A2NE (Y91N, S92E) (Aplysia californica, UniProt Q8WSF8, S111E/Y110N); assay: [3H]granisetron binding to single-loop construct
T4 sequence (Q8WSF8 20-236 Y110N/S111E): T1 sequence (Q8WSF8 20-236 Y72W/S111E/V159L/K160T) with W53Y, Y91N, L140V, T141K

[6] = biological target: T5, construct C5 (Aplysia californica, UniProt Q8WSF8, C207M/C208E/E210S/P209S/P211N); assay: [3H]granisetron binding to single-loop construct
T5 sequence (Q8WSF8 20-236 C207M/C208E/P209S/E210S/P211N): T1 sequence (Q8WSF8 20-236 Y72W/S111E/V159L/K160T) with W53Y, E92S, L140V, T141K, C188M, C189E, P190S, E191S, P192N

[7] = biological target: T6, construct C6 (Aplysia californica, UniProt Q8WSF8, C207E/C208S/E210N/INS206M/P209S/P211Y); assay: [3H]granisetron binding to single-loop construct
T6 sequence (Q8WSF8 with tags, fused parts or gaps INS206M/C207E/C208S/P209S/E210N/P211Y): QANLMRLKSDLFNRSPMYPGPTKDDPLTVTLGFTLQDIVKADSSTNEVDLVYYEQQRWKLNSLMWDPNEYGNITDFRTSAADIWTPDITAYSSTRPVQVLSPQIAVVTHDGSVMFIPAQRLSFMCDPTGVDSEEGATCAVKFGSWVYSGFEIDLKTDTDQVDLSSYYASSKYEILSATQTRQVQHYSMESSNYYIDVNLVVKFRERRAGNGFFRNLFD

[8] = biological target: T7, construct E3 (Aplysia californica, UniProt Q8WSF8, I123Y/I135Y/V125Y); assay: [3H]granisetron binding to single-loop construct
T7 sequence (Q8WSF8 20-236 I123Y/V125Y/I135Y): T1 sequence (Q8WSF8 20-236 Y72W/S111E/V159L/K160T) with W53Y, E92S, I104Y, V106Y, I116Y, L140V, T141K

[9] = biological target: T8, construct E1 (Aplysia californica, UniProt Q8WSF8, I135Y); assay: [3H]granisetron binding to single-loop construct
T8 sequence (Q8WSF8 20-236 I135Y): T1 sequence (Q8WSF8 20-236 Y72W/S111E/V159L/K160T) with W53Y, E92S, I116Y, L140V, T141K

[10] = biological target: T9, 5HTBP construct A1 B2 D2 (Aplysia californica, UniProt Q8WSF8, K160T/Q74R/S111E/V159L/Y72W); assay: Competition binding with [3H]granisetron; conditions: NB = no binding
T9 sequence (Q8WSF8 20-236 Y72W/Q74R/S111E/V159L/K160T): T1 sequence (Q8WSF8 20-236 Y72W/S111E/V159L/K160T) with Q55R

Row | SMILES | increase in the affinity compared with wild-type Ac-AChBP [1] [fold] | lower affinity than acetylcholine [2] [fold] | Ki [3] [nM] | Ki [4] [nM] | [3H]granisetron binding [5] | [3H]granisetron binding [6] | [3H]granisetron binding [7] | [3H]granisetron binding [8] | [3H]granisetron binding [9] | Granisetron Ki, [3H]granisetron binding [10]
1 | NCCc1c[nH]c2ccc(O)cc12 [Serotonin, 5-hydroxytryptamine] | ~40 | ~60 |  |  |  |  |  |  |  | 
2 | CN1C2CCCC1CC(NC(=O)c1nn(C)c3ccccc13)C2 (stereo not shown) [[^3H]granisetron, [3H]BRL-43694] |  |  | 454 ± 71 | 270 ± 51 | failed to bind | did not show detectable [^3H]granisetron binding | did not show detectable [^3H]granisetron binding | no detectable [^3H]granisetron binding | no detectable [^3H]granisetron binding | no longer bound
